{"source": "patent US9688709B2", "about": "“Phosphaplatins and their use for treatment of cancers” (OHIO UNIVERSITY, priority 2010, dated 2017)", "key": {"[1]": {"test_system": "A2780, epithelial human ovarian cancer", "test": "Clonogenic assay, A2780 cells", "assay_type": "cell-based", "experimental": "(§1) To determine the relative activities of the phosphaplatins of formulas (I)-(VI), each stereoisomer was tested through in vitro clonogenic assays using human ovarian cancer cells, human colon cancer cells, and human head-and-neck cancer cells. […] Cells were cultured on monolayer using RPMI 1640 supplemented with 10% fetal bovine serum, 2 mM glutamine, 0.25 units/mL insulin and penicillin/streptomycin (100 units/mL) in a 37° C. incubator continuously gassed with 5% CO2. Cells were subcultured using 0.0625% trypsin in HBSS to maintain cells in exponential cell growth.\nHalf-maximal inhibitory concentration (IC50) values were determined using a clonogenic assay or a CyQUANT® cell proliferation assay. In the clonogenic assay, for example, 500-700 A2780 cells from a single cell suspension were plated onto 60 mm petri plates 24 hours before treatment with the platinum compounds to permit cell attachment. On the day of treatment with the platinum compounds described in the above Synthesis Examples, the medium was decanted and was replaced with the appropriate concentration of phosphaplatin compounds (from 50 nM to 75 μM) at three different time points, […] Triplicate plates were set up for each platinum compound concentration. […] These plates were returned to the 37° C. incubator for 7 days for colony formation.\n(§2) In TABLES 1-5, except where actual error values are given, each reported value is assumed to have an error not greater than ±15% of the reported value; and unless otherwise specified, the data were obtained from clonogenic assays.\n(§3) In further tests, cells were treated with the platinum compounds continuously for 7 days. Colonies were fixed and stained using 2% crystal violet in 4% formaldehyde. Colonies containing more than 50 cells were scored. The number of scored colonies from the triplicate plates was averaged, and this number was divided by the number of cells plated to obtain a value for the fraction of cells forming colonies. These values for fraction of cells forming colonies then were corrected for plating efficiency by dividing the fraction by the number of cells forming colonies in plates that were not treated with platinum compounds. […] Similar data for OVCAR-10 are shown in FIG. 3, comparing (1R,2R)-pyrodach-2 (RD2), (1R,2R)-pyrodach-4 (RD4), trans-(±)-pyrodach-2 (T-D2), and trans-(±)-pyrodach-4 (T-D4)."}, "[2]": {"test_system": "A2780/C30, epithelial human ovarian cancer resistant to 30 μM cisplatin and 100 μM carboplatin", "test": "Clonogenic assay, A2780/C30 cells", "assay_type": "cell-based", "details": "A2780/C30, 1 hour treatment", "experimental": "as §1\nHalf-maximal inhibitory concentration (IC50) values were determined using a clonogenic assay or a CyQUANT® cell proliferation assay. In the clonogenic assay, for example, 500-700 A2780 cells from a single cell suspension were plated onto 60 mm petri plates 24 hours before treatment with the platinum compounds to permit cell attachment. On the day of treatment with the platinum compounds described in the above Synthesis Examples, the medium was decanted and was replaced with the appropriate concentration of phosphaplatin compounds (from 50 nM to 75 μM) at three different time points, […] Triplicate plates were set up for each platinum compound concentration. After the 24-hour treatment, the medium containing the platinum compounds was decanted and was replaced with fresh medium. These plates were returned to the 37° C. incubator for 7 days for colony formation.\nas §2, §3"}, "[3]": {"test_system": "OVCAR-10, human ovarian cancer resistant to cisplatin treatment", "test": "Clonogenic assay, OVCAR-10 cells", "assay_type": "cell-based", "details": "OVCAR-10, 24 hours treatment", "experimental": "as §1\nHalf-maximal inhibitory concentration (IC50) values were determined using a clonogenic assay or a CyQUANT® cell proliferation assay. In the clonogenic assay, for example, 500-700 A2780 cells from a single cell suspension were plated onto 60 mm petri plates 24 hours before treatment with the platinum compounds to permit cell attachment. On the day of treatment with the platinum compounds described in the above Synthesis Examples, the medium was decanted and was replaced with the appropriate concentration of phosphaplatin compounds (from 50 nM to 75 μM) at three different time points, and the treated cells were placed back into the 37° C. incubator for 24 hours. Triplicate plates were set up for each platinum compound concentration. After the 24-hour treatment, the medium containing the platinum compounds was decanted and was replaced with fresh medium. These plates were returned to the 37° C. incubator for 7 days for colony formation.\nas §2, §3"}, "[4]": {"test_system": "human colon cancer cell lines (HT-29)", "test": "CyQUANT cell proliferation assay, HT-29", "assay_type": "cell-based", "details": "HT-29, 72 hours", "source_text": "(§4) In these experiments, desired number of cells were exposed to phosphaplatins of different concentrations for 72 hr. before measuring the DNA content. Because the DNA content is proportional to the number of surviving cells, the assay provides a quantitative measure of proliferating cells. The technique is described in detail in Jones et al., “Sensitive determination of cell number using the CyQUANT cell proliferation assay,” J. Immunol. Methods, vol. 254, pp. 85-98 (2001).\nas §2"}, "[5]": {"test_system": "A549, human lung adenocarcinoma cancer cells", "test": "CyQUANT cell proliferation assay, A549", "assay_type": "cell-based", "details": "A549, 72-hour treatment", "source_text": "as §4, §2"}, "[6]": {"test_system": "U251, human glioblastoma cancer cells", "test": "CyQUANT cell proliferation assay, U251", "assay_type": "cell-based", "details": "U251, 72-hour treatment", "source_text": "as §4, §2"}, "[7]": {"test_system": "PC-3, human metastatic prostate cancer cells", "test": "CyQUANT cell proliferation assay, PC-3", "assay_type": "cell-based", "details": "PC-3, 72-hour treatment", "source_text": "as §4, §2"}, "[8]": {"test_system": "SKMEL-2, human skin melanoma cancer cells", "test": "CyQUANT cell proliferation assay, SKMEL-2", "assay_type": "cell-based", "details": "SKMEL-2, 72-hour treatment", "source_text": "as §4, §2"}, "[9]": {"test_system": "MCF-7, human breast cancer cells", "test": "CyQUANT cell proliferation assay, MCF-7", "assay_type": "cell-based", "details": "MCF-7, 72-hour treatment", "source_text": "as §4, §2"}, "[10]": {"test_system": "OVCAR-8, human ovarian cancer cells with dysfunctional p53", "test": "CyQUANT cell proliferation assay, OVCAR-8", "assay_type": "cell-based", "details": "OVCAR-8, 72-hour treatment", "source_text": "as §4, §2"}, "[11]": {"test_system": "OVCAR-10, human ovarian cancer resistant to cisplatin treatment", "test": "CyQUANT cell proliferation assay, OVCAR-10", "assay_type": "cell-based", "details": "OVCAR-10, 72-hour treatment", "source_text": "as §4, §2"}, "[12]": {"test_system": "Ovarian tumor", "test": "Ovarian tumor inflicted SCID mice, tumor growth and log cell kill", "assay_type": "in vivo", "details": "7 mg/kg", "experimental": "Ovarian tumor inflicted SCID mice were treated with trans-(±)-pyrodach-2 and trans-(±)-pyrodach-4 at various doses up to 40 mg/kg, and tumor growth was monitored up to six weeks or until the tumor size became so large that these animals were sacrificed. The tumor growth or regression by the phosphaplatin-treated mice was then compared with cisplatin-treated mice (7 mg/kg) and carboplatin-treated mice (60 mg/kg). Three doses of platinum compounds were administered on alternate days when the tumor grew to a size of at least 100 mm^3 size. Gross and net log cell kill values were then calculated using the formulas:\n[formula] [formula] where T and C are median times in days to grow tumor to a specified size, and Td is the median time in days to double the size of the tumor in control animals."}}, "note": "pIC50: −log10 of the molar value.", "data": [{"smiles": "N.N.[Cl][Pt][Cl]", "note": "[cisplatin]", "values": [{"measurement": "pIC50", "setting": "[1]; A2780, 1 hour treatment", "value": 5.15}, {"measurement": "pIC50", "setting": "[1]; A2780, 24 hours treatment", "value": 5.30}, {"measurement": "pIC50", "setting": "[2]", "value": 4.00}, {"measurement": "pIC50", "setting": "[3]", "value": 5.39}, {"measurement": "pIC50", "setting": "[4]", "value": 5.19}, {"measurement": "pIC50", "setting": "[5]", "value": 5.55}, {"measurement": "pIC50", "setting": "[6]", "value": 6.12}, {"measurement": "pIC50", "setting": "[7]", "value": 5.97}, {"measurement": "pIC50", "setting": "[8]", "value": 5.27}, {"measurement": "pIC50", "setting": "[9]", "value": 5.29}, {"measurement": "pIC50", "setting": "[10]", "value": 5.20}, {"measurement": "pIC50", "setting": "[11]", "value": 5.51}, {"measurement": "time to death of treated mice", "setting": "[12]", "value": "≤ 7", "unit": "days"}, {"measurement": "tumor response", "setting": "[12]", "value": "tumor regression"}]}]}
